Columns and labels:
Assay type in all cases: cell-based, rat
[1] = test system: cardiac explants; experiment: Morphology of explant cultures after 21 days with TGF-β inhibitors; settings: 21 days in culture
[2] = test system: cardiac stem cells; experiment: RNA expression analysis (real-time RT-PCR) of EMT and pluripotency markers after 7 days with TGF-β inhibitors
Experimental: Total RNA was extracted from the cardiac stem cells using PureLink RNA Mini Kit (Life Technologies) according to the manufacturer's protocol. RNA was then quantified with a Quanti-iT RiboGreen RNA Assay Kit and assessed using a BioTek Synergy HT Microplate Reader (excitation/emission 480/520 nm). Total RNA (200 ng) was reverse-transcribed with a QuantiTect Reverse Transcription kit (Qiagen). Real-time RT-PCR was conducted using Rower SYBR Green Master Mix (Applied Biosystems) on a StepOnePlus Real-time PCR System (Applied Biosystems). Specific primers were synthesized by Life Technologies. CYPA was used as a reference gene. Data analysis was performed on StepOne software version 2.1 (Applied Biosystems) using the comparative Ct (AACt) quantitation method.
To determine the effect of inhibition of TGF-β signaling in cardiac stem cells on markers of epithelial/endothelial to mesenchymal transition (i.e., EMT markers) and pluripotency markers the following experiments were performed. Cardiac stem cells were isolated from sham and CHF heart tissue as described in Example 1 above. Cardiac stem cells from CHF and sham animals were treated in culture with TGF-β inhibitors SB431542 or SIS3 for 7 days and subsequently assessed for EMT and pluripotency expression by RNA expression analysis and western blotting using the techniques described above in Example 1.

[3] = test system: cardiac stem cells; experiment: Differentiation potential: cardiac troponin T (TnT) immunocytochemistry; settings: 7 days in cardiac differentiation medium with 2 μmol/L Mocetinostat
Experimental: The effects of TGF-β inhibition on the differentiation potential of cardiac stem cells was examined as follows. Cardiac stem cells were isolated from heart tissue of CHF and sham animals as described in Example 1 above. Cells were subsequently cultured in cardiac differentiation medium (EMD Millipore) supplemented with 2 μmol/L Mocetinostat (SelleckChem) in the presence or absence of TGF-β inhibitors SB431542 and SIS3 for 7 days. Expression of cardiac troponin T (TnT) was evaluated by immunocytochemistry. TnT is an accepted marker for cardiac differentiation. Cells were fixed/permeabilized with a 1:1 acetone:ethanol mixture, blocked with 3% BSA in PBS, and labeled with mouse anti-TnT primary antibody (Abcam). Specific staining was visualized using anti-mouse secondary antibodies conjugated with Alexa 568 (Molecular Probes). Nuclei were stained with 4′,6-diamidino-2-phenylindole (Invitrogen). TnT-positive cells were quantified in 5 random microscopic fields. The percentage of TnT-positive cells was calculated as the number of positively stained cells normalized to the total number of cells.

[4] = test system: explant-derived cardiac stem cells; experiment: Flow cytometry of explant outgrowths cultured 21 days with TGF-β inhibitors
Experimental: Isolated cardiac stem cells were further characterized using flow cytometry as follows. Cells were fixed in 70% ethanol and labeled with the following antibodies: c-Kit (Santa-Cruz Biotechnology), vimentin and smooth muscle actin (Abcam), and CD90 (BD Biosciences). Cells were treated with secondary antibodies corresponding to either anti-rabbit or anti-mouse IgG conjugated with Alexa 488, phycoerythrin (PE), or PE-Cy5.5 (Life Technologies). Direct labeling with FITC-conjugated CD34 and PE-Cy5.5 conjugated CD45 (BD Biosciences) antibodies was used to exclude bone marrow and hematopoietic cells. Freshly isolated bone marrow cells were used as positive controls for CD34 and CD45 labeling. For a negative control, cells were labeled with isotype IgG instead of primary antibody. Cell events were detected using a FACS Calibur flow cytometer equipped with an argon laser (BD Biosciences). Data were analyzed using CellQuest software (BD Biosciences).
The effects of TGF-β inhibition on the yield of explant-derived cardiac stem cells were examined as follows. Cardiac stem cells were isolated from heart tissue of CHF and sham animals as described in Example 1 above. Cells were subsequently cultured in cardiac differentiation medium (EMD Millipore) supplemented with 2 μmol/L Mocetinostat (SelleckChem) in the presence or absence of TGF-β inhibitors SB431542 and SIS3 for 21 days. Explant outgrowths were analyzed by flow cytometry as described above in Example 1.

SMILES | number of small, round phase-bright cell clusters compared with controls [1] | increased Sox2 expression ([2]; CHF cardiac stem cells) [fold] | upregulated E-cadherin expression ([2]; CHF cardiac stem cells) | upregulated Nanog expression ([2]; CHF cardiac stem cells) | increased Sox2 expression ([2]; sham cardiac stem cells) [fold] | reduced SMA gene expression ([2]; sham cardiac stem cells) [fold] | upregulated E-cadherin expression ([2]; sham cardiac stem cells) [fold] | upregulated Nanog expression ([2]; sham cardiac stem cells) [fold] | TnT+ cells ([3]; CHF cardiac stem cells) [%] | TnT+ cells ([3]; sham cardiac stem cells) [%] | decreased percentage of vimentin-positive fibroblasts ([4]; CHF CSCs) [%] | increase in the number of c-Kit+ cells ([4]; CHF CSCs) | reduction of the number of SMA-positive myofibroblasts ([4]; CHF CSCs) [%] | decreased percentage of vimentin-positive fibroblasts ([4]; sham CSCs) [%] | increase in the number of c-Kit+ cells ([4]; sham CSCs) [%] | reduction of the number of CD90-positive cells ([4]; CHF CSCs) [%] | reduction of the number of CD90-positive cells ([4]; sham CSCs) [%]
NC(=O)c1ccc(-c2nc(-c3ccc4c(c3)OCO4)c(-c3ccccn3)[nH]2)cc1 [SB431542] | higher number | 4.1 | 3.6 fold | 2.4 fold | 5.2 | 2 | 6.2 | 2 | 15.4 | 24.4 | 42 | 75% | 63.3 | 55 | 36.6 | – | –
COc1cc2c(cc1OC)CN(C(=O)/C=C/c1c(-c3ccccc3)n(C)c3ncccc13)CC2 [SIS3] | higher number | – | no effect | no effect | 4 | 5 | 5 | 2.2 | 19.6 | 36.2 | 34 | no effect | 62.8 | 35 | 52 | 53 | 52.4

— patent US20150258084A1, “STEM CELL COMPOSITIONS AND METHODS OF THEIR USE” (Banner Health, priority 2014, published 2015)
